According to paper PMC12081876, “Identification of PTGR2 inhibitors as a new therapeutic strategy for diabetes and obesity” (EMBO Molecular Medicine, 2025):
“And” between values parts separate entries of the source, which are not always exact repeats. Equal values may be shown once.

How the values were obtained:
mPPARγ-downstream genes = assay: RT-qPCR of Glut4 and other mPPARγ-downstream genes in differentiated 3T3-L1 adipocytes; format: cell-based, mouse
Method: The cell lines, which were tested for mycoplasma contamination and authenticated, were purchased from the Bioresource Collection and Research Center, Taiwan. All cells were cultured at 37 °C, 5% CO2 in a humidified incubator. HEK293T cells were maintained in DMEM (cat. no. SH30003.02, HyClone) supplemented with 10% fetal bovine serum (FBS) (cat. no. 04-001-1A, Biological Industries) and 1% antibiotic/antimycotic solution (cat. no. SV30079.01, HyClone). 3T3-L1 preadipocytes were maintained at ~70% confluence in DMEM with 10% calf serum (cat. no. 16170078, Gibco) and 1% antibiotic/antimycotic solution. For adipocyte differentiation, confluent 3T3-L1 cells (defined as day 0) were exposed to an induction medium containing 10% FBS, 1 μM dexamethasone (cat. no. D4902, Sigma-Aldrich), and 1 μg/ml insulin (Humulin R, Eli Lilly) in DMEM with or without 0.5 mM isobutyl-methylxanthine (cat. no. sc-201188A, Santa Cruz Biotechnology) as indicated. After two days, the medium was replaced with DMEM containing 10% FBS and 1 μg/ml insulin and was replenished every two days until assay.
A total of 1 × 10^5 3T3-L1 preadipocytes were seeded in 6-well plates and differentiated for six days. The 3T3-L1 adipocytes were then harvested in 1 ml of REzol C&T (cat. no. PT-KP200CT, Protech), and total RNA was extracted according to the manufacturer’s instructions with slight modifications. Briefly, 200 μl of chloroform were added to 1 ml of sample in REzol, and samples were vigorously mixed by shaking for 30 s, followed by incubation at room temperature for 5 min. Then, samples were centrifuged at 12,000 × g for 15 min at 4 °C, and 400 μl of the upper aqueous phase were transferred to a new 1.5-ml tube. An equal volume of isopropanol was added. Samples were inverted several times for mixing and then centrifuged at 12,000 × g for 10 min at 4 °C. The RNA precipitate, which formed a pellet at the bottom of the 1.5-ml tube, was washed three times with 75% ethanol and air-dried for 15 min. Pellets were dissolved in RNase-free water. The concentration of RNA was measured using Nanodrop. cDNA was synthesized using a reverse transcription kit (cat. no. K1622, Thermo Scientific) using the oligo(dT)18 primers. RT-qPCR was performed in a 10-μl reaction with 50 ng cDNA and 0.2 μM primer using SYBR green reagent (cat. no. 11203ES08, YEASEN). Mouse peptidylprolyl isomerase A (Ppia) mRNA was used as the internal control. RT-qPCR reactions were performed using ABI 7900HT FAST (Applied Biosystems) and Sequence Detection Systems (SDS v2.3, Applied Biosystems). All qPCR reactions were run in duplicates. The primers used are listed in Appendix Table S3.

[1] = test system: PPARγ-null 3T3-L1 clones rescued with wild-type mPPARγ; assay: Insulin-stimulated glucose uptake in PPARγ-null 3T3-L1 clones rescued with wild-type mPPARγ; format: cell-based, mouse; settings: for insulin-stimulated glucose uptake, Fig 1P left panel replicates: rescued with wild-type mPPARγ
Method: Gene editing was performed in 3T3-L1 preadipocytes using the clustered regularly interspaced short palindromic repeats (CRISPR)/Cas9 system. Two single-guide RNAs (sgRNA) (Appendix Table S5) targeting exon 6 of mouse Pparγ were designed using a web-based design tool (http://crispr.mit.edu/). These oligonucleotides were cloned into the pSurrogate reporter and pAll-Cas9.Ppuro vector obtained from Academia Sinica, Taiwan. The pSurrogate reporter contains an EGFP and an out-of-frame mCherry downstream of the sgRNA; the pAll-Cas9.Ppuro vector expresses Cas9 nuclease and sgRNA. Once a double-strand breaking at the target site in pSurrogate reporter plasmid was created by Cas9, insertions and deletions (indels) could be introduced at the cleaved site. The indels cause frameshifts and result in the expression of the mCherry gene. 3T3-L1 preadipocytes were co-transfected with pSurrogate reporter and pAll-Cas9.Ppuro vectors at 80-90% confluency using PolyJet™ transfection reagent (cat. no. SL100688, SignaGen Laboratories, USA). Two days after transfection, EGFP/mCherry double-positive cells were enriched by fluorescent-activated cell sorting. Single cells were isolated and expanded. The genomic DNA was amplified by PCR and sequenced to confirm the knockout cell lines. The primer sequences are shown in Appendix Table S5.
The mPPARγ C313A DNA sequence was amplified from pCMV6-Pparg C313A and subcloned into the pLVX-IRES-Neo vector with XhoI/NotI restriction sites. The lentiviral expression plasmids, pMD.G, and pCMVΔR8.91 (RNAi Core, Academia Sinica, Taiwan), were co-transfected into HEK293T cells. […] HSP70 was probed with an anti-HSP70 antibody (cat. no. ab45133, Abcam) as a loading control.
Differentiated 3T3-L1 cells were starved with serum-free DMEM containing 0.2% BSA (cat. no. A9647, Sigma-Aldrich). […] Uptake of 2DG was terminated by rapidly removing medium and washing with ice-cold PBS three times. Cells were lysed with 0.1% SDS, and the radioactivity was measured using a liquid scintillation counter. Insulin-mediated glucose uptake was calculated by subtracting insulin-treated glucose uptake with basal glucose uptake.

SMILES: CCCCCC(=O)/C=C/[C@H]1[C@H](O)CC(=O)[C@@H]1C/C=C\CCCC(=O)O [15-keto-PGE2, 15-keto-prostaglandin E2]
- Expression of Glut4 and other PPARγ-downstream genes (Irs2, Sorbs1, Cd36, Acs, Cebpa, Adipq) (mPPARγ-downstream genes; 3T3-L1 adipocytes): significantly increased
- Adipoq RT-qPCR, Fig 1I replicates (mPPARγ-downstream genes; 15kPGE2 1μM): 1.0415 and 1.163 and 1.453
- Cepba RT-qPCR, Fig 1H replicates (mPPARγ-downstream genes; 15kPGE2 1μM): 1.584 and 1.855 and 1.4452
- Adipoq RT-qPCR, Fig 1I replicates (mPPARγ-downstream genes; 15kPGE2 5μM): 2.354 and 2.11 and 2.081
- Cepba RT-qPCR, Fig 1H replicates (mPPARγ-downstream genes; 15kPGE2 5μM): 1.743 and 1.998 and 2.055
- Adipoq RT-qPCR, Fig 1I replicates (mPPARγ-downstream genes; 15kPGE2 10μM): 2.022 and 2.345 and 2.444
- Cepba RT-qPCR, Fig 1H replicates (mPPARγ-downstream genes; 15kPGE2 10μM): 2.675 and 2.195 and 2.109
- Acs RT-qPCR, Fig 1G replicates (mPPARγ-downstream genes; 15kPGE2 1): 1.074 and 1.165 and 0.8587
- Cd36 RT-qPCR, Fig 1F replicates (mPPARγ-downstream genes; 15kPGE2 1): 1.042 and 1.096 and 0.9399
- Glut4 RT-qPCR, Fig 1C replicates (mPPARγ-downstream genes; 15kPGE2 1): 1.309 and 1.263 and 1.257
- Irs2 RT-qPCR, Fig 1D replicates (mPPARγ-downstream genes; 15kPGE2 1): 1.164 and 1.43 and 1.116
- Sorbs1 RT-qPCR, Fig 1E replicates (mPPARγ-downstream genes; 15kPGE2 1): 1.214 and 1.379 and 1.0658
- Acs RT-qPCR, Fig 1G replicates (mPPARγ-downstream genes; 15kPGE2 5): 1.251 and 1.575 and 1.53
- Cd36 RT-qPCR, Fig 1F replicates (mPPARγ-downstream genes; 15kPGE2 5): 1.448 and 1.619 and 1.287
- Glut4 RT-qPCR, Fig 1C replicates (mPPARγ-downstream genes; 15kPGE2 5): 2.797 and 2.997 and 3.11
- Irs2 RT-qPCR, Fig 1D replicates (mPPARγ-downstream genes; 15kPGE2 5): 1.3621 and 1.275 and 1.386
- Sorbs1 RT-qPCR, Fig 1E replicates (mPPARγ-downstream genes; 15kPGE2 5): 1.2593 and 1.694 and 1.702
- Acs RT-qPCR, Fig 1G replicates (mPPARγ-downstream genes; 15kPGE2 10): 2.4974 and 2.133 and 2.44
- Cd36 RT-qPCR, Fig 1F replicates (mPPARγ-downstream genes; 15kPGE2 10): 2.006 and 2.309 and 1.915
- Glut4 RT-qPCR, Fig 1C replicates (mPPARγ-downstream genes; 15kPGE2 10): 7.333 and 8.598 and 7.543
- Irs2 RT-qPCR, Fig 1D replicates (mPPARγ-downstream genes; 15kPGE2 10): 2.078 and 2.094 and 1.997
- Sorbs1 RT-qPCR, Fig 1E replicates (mPPARγ-downstream genes; 15kPGE2 10): 2.379 and 1.942 and 1.911
- insulin-stimulated glucose uptake, Fig 1P left panel replicates ([1]; 15kPGE2 1): 0.8065 and 0.6857 and 0.06677 and 0.8595
- insulin-stimulated glucose uptake, Fig 1P left panel replicates ([1]; 15kPGE2 5): 1.281 and 2.22 and 0.9527 and 1.646
- insulin-stimulated glucose uptake, Fig 1P left panel replicates ([1]; 15kPGE2 10): 2.206 and 2.06 and 1.8139 and 2.125
- insulin-stimulated glucose uptake, PPARγ-null clone rescued with wild-type mPPARγ ([1]; clone #1296): enhanced insulin-stimulated glucose uptake in clone # 1296 when rescued with wild-type mPPARγ

SMILES: CCCCCC(=O)CC[C@H]1[C@H](O)CC(=O)[C@@H]1C/C=C\CCCC(=O)O [13,14-dihydro-15-keto-PGE2]
- Adipoq RT-qPCR, Fig 1I replicates (mPPARγ-downstream genes; 13,14dh-15kPGE2 10μM): 1.319 and 1.153 and 1.286
- Cepba RT-qPCR, Fig 1H replicates (mPPARγ-downstream genes; 13,14dh-15kPGE2 10μM): 1.374 and 0.7769 and 0.716
- Acs RT-qPCR, Fig 1G replicates (mPPARγ-downstream genes; 13,14dh-15kPGE2 10): 1.301 and 1.081 and 1.404
- Cd36 RT-qPCR, Fig 1F replicates (mPPARγ-downstream genes; 13,14dh-15kPGE2 10): 1.404 and 1.223 and 0.9692
- Glut4 RT-qPCR, Fig 1C replicates (mPPARγ-downstream genes; 13,14dh-15kPGE2 10): 1.898 and 2.106 and 1.673
- Irs2 RT-qPCR, Fig 1D replicates (mPPARγ-downstream genes; 13,14dh-15kPGE2 10): 0.9456 and 0.6593 and 0.5678
- Sorbs1 RT-qPCR, Fig 1E replicates (mPPARγ-downstream genes; 13,14dh-15kPGE2 10): 1.1258 and 0.882 and 0.8066
- insulin-stimulated glucose uptake, Fig 1P left panel replicates ([1]; 1314-dihydro-15kPGE2 5): 0.5765 and 0.8817 and 0.585 and 1.089
